Among the test systems are 786-0 renal; A498 renal; ACHN renal; HCT-116 colon; HT29 colon; KM12 colon; NCI-H460 lung; NCI/ADR-RES ovarian; SF-295 CNS; SR leukemia.
Assay in all cases: NCI-60 cell line screen, 48 h

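Five concentrations, 48 hours, 96-well plates. The concentration for 50% growth inhibition is given as GI50. The concentration for full growth arrest is given as TGI.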

Here are results for 8 compounds from PubChem BioAssay (NCI).

Take `CC(C)CCC(=O)[C@@H](C)[C@H]1[C@@H](OC2OCC(O)C(O)C2NS(C)(=O)=O)C[C@H]2[C@@H]3CC=C4C[C@@H](O)CC[C@]4(C)[C@H]3CC[C@]12C` (stereo not given in full): the GI50 in the test with 786-0 renal was 0.181 µM; in the test with A498 renal, 0.724 µM; in the test with ACHN renal, 2.15 µM; in the test with HCT-116 colon it was 0.715 µM; in the test on HT29 colon, 3.02 µM; with KM12 colon, 2.77 µM. In addition, the GI50 was 1.42 µM in the test on NCI-H460 lung, 9.82 µM in the test on NCI/ADR-RES ovarian, 0.141 µM with SF-295 CNS and 1.03 µM in the test with SR leukemia. In addition, the TGI in the test on 786-0 renal is 0.93 µM; in the test on A498 renal, 1.7 µM; in the test on ACHN renal, 11.6 µM; in the test on HCT-116 colon, 5.74 µM; in the test on HT29 colon it was 12.5 µM; with KM12 colon, 11 µM. Also, the TGI is 4.86 µM with NCI-H460 lung, > 40 µM with NCI/ADR-RES ovarian, 0.595 µM with SF-295 CNS and 8.39 µM with SR leukemia.

With `O=C(Nc1ccc2c(c1)OCO2)C(=O)c1c[nH]c2cc(F)ccc12`, the GI50 is 4.39 µM in the test on 786-0 renal; 2.72 µM in the test on A498 renal; 0.547 µM in the test on ACHN renal; 11.2 µM in the test on HCT-116 colon; 8.04 µM in the test with HT29 colon; 0.389 µM in the test on KM12 colon. Moreover, the GI50 in the test with NCI-H460 lung was 3.26 µM; with NCI/ADR-RES ovarian, 1.47 µM; in the test with SF-295 CNS, 2.19 µM; in the test on SR leukemia it was 2.85 µM. Further, the TGI was 23 µM in the test with 786-0 renal; 16.7 µM in the test on A498 renal; 20.4 µM in the test on ACHN renal; > 100 µM in the test on HCT-116 colon; > 100 µM in the test on HT29 colon; 13.7 µM in the test on KM12 colon. Besides, the TGI was > 100 µM with NCI-H460 lung, 22.9 µM in the test on NCI/ADR-RES ovarian, 21.5 µM in the test with SF-295 CNS and 19.6 µM with SR leukemia.

Turning to `COc1cc(/C=C\c2cc(/C=C\c3ccc(O)c(OC)c3)n(C(=O)CNc3ccc(Cl)cc3)n2)ccc1O`, the GI50 is 3.03 µM with 786-0 renal; 7.64 µM in the test with A498 renal; 0.628 µM in the test with ACHN renal; 2.9 µM in the test on HCT-116 colon; 3 µM with HT29 colon; 2.64 µM in the test on KM12 colon. The GI50 was 3.17 µM with NCI-H460 lung, 3.75 µM with NCI/ADR-RES ovarian, 6.07 µM in the test on SF-295 CNS and 0.341 µM in the test on SR leukemia. The TGI in the test with 786-0 renal came to 12.8 µM; with A498 renal it was 20 µM; in the test on ACHN renal, 14.9 µM; in the test on HCT-116 colon it was 13.5 µM; with HT29 colon, 9.27 µM; in the test with KM12 colon, 13.1 µM. The TGI came to 12.5 µM with NCI-H460 lung, 41.8 µM with NCI/ADR-RES ovarian, 20.1 µM with SF-295 CNS and 7.14 µM with SR leukemia.

With `CCCN1C(=O)/C(=C/c2ccc(O)cc2)SC1=Nc1ccc(OC)cc1`, the GI50 in the test on 786-0 renal is 16 µM; in the test with A498 renal, 9.61 µM; in the test with ACHN renal, 12.7 µM; with HCT-116 colon, 14.2 µM; with HT29 colon, 22.1 µM; in the test on KM12 colon, 10.6 µM. Further, the GI50 in the test on NCI-H460 lung was 17.6 µM; with NCI/ADR-RES ovarian, 14 µM; in the test with SF-295 CNS, 14.7 µM; in the test with SR leukemia it was 10.4 µM. Besides, the TGI with 786-0 renal amounted to 34.6 µM; in the test with A498 renal it was 22.7 µM; in the test with ACHN renal, 25.3 µM; in the test on HCT-116 colon, 29.3 µM; in the test with HT29 colon, 48.4 µM; in the test with KM12 colon, 28.7 µM. Moreover, the TGI in the test on NCI-H460 lung is 66.7 µM; in the test on NCI/ADR-RES ovarian, 29.5 µM; with SF-295 CNS, 34.9 µM; in the test with SR leukemia it was > 100 µM.

Take `O=C(NNC(=S)Nc1ccccc1)c1ccccn1`: the GI50 is 2.81 µM in the test on 786-0 renal; 4.55 µM in the test on A498 renal; 1.22 µM in the test with ACHN renal; 3.02 µM in the test on HCT-116 colon; 4.17 µM with HT29 colon; 3.9 µM in the test on KM12 colon. The GI50 with NCI-H460 lung was 1.06 µM; with NCI/ADR-RES ovarian it was 2.84 µM; with SF-295 CNS, 1.97 µM; in the test on SR leukemia it was 1.63 µM. For the same compound, the TGI in the test with 786-0 renal, in the test on A498 renal, in the test on ACHN renal, with HCT-116 colon, in the test on HT29 colon and in the test on KM12 colon was > 100 µM in each case. Besides, the TGI with NCI-H460 lung, with NCI/ADR-RES ovarian, in the test with SF-295 CNS and with SR leukemia was > 100 µM in each case.

Take `COc1cc2ncn(-c3cc(OCc4ccccc4C(F)(F)F)c(C(C)=O)s3)c2cc1OC`: the GI50 in the test on 786-0 renal is > 25 µM; with A498 renal it was 4.1 µM; in the test with ACHN renal it was > 25 µM; in the test with HCT-116 colon it was > 25 µM; in the test with HT29 colon it was > 25 µM; with KM12 colon it was > 25 µM. For the same compound, the GI50 in the test on NCI-H460 lung, in the test with NCI/ADR-RES ovarian, in the test on SF-295 CNS and in the test on SR leukemia was > 25 µM throughout. Further, the TGI was > 25 µM in the test on 786-0 renal; 17.2 µM in the test on A498 renal; > 25 µM in the test on ACHN renal; > 25 µM with HCT-116 colon; > 25 µM in the test with HT29 colon; > 25 µM in the test on KM12 colon. The TGI in the test with NCI-H460 lung, in the test with NCI/ADR-RES ovarian, in the test on SF-295 CNS and in the test with SR leukemia was > 25 µM throughout.

Take `C=C1NC(=O)C(CC(C(=O)C(=O)Nc2c(C)cccc2C(C)(C)C)C(=O)c2ccc3ccccc3c2)C(=O)N1` (stereo not given): the TGI with 786-0 renal, with A498 renal, in the test on ACHN renal, in the test with HCT-116 colon, in the test on HT29 colon and with KM12 colon was > 100 µM throughout. The TGI with NCI-H460 lung, with NCI/ADR-RES ovarian, in the test on SF-295 CNS and in the test on SR leukemia was > 100 µM each time.

On to `CC(C)(C)c1ccc(O)c(CN(Cc2cc(C(C)(C)C)ccc2O)C2CCCCC2)c1`, for which the TGI in the test on 786-0 renal was 29.8 µM; in the test on A498 renal, 31 µM; with ACHN renal it was 37.4 µM; with HCT-116 colon, 30.6 µM; in the test on HT29 colon, 37.1 µM; in the test on KM12 colon, 41.2 µM. In addition, the TGI is 31.5 µM with NCI-H460 lung, 42.1 µM in the test with NCI/ADR-RES ovarian, 34 µM in the test with SF-295 CNS and 31.4 µM in the test on SR leukemia.
